The results in this text go back to PubChem BioAssay (NCI).

Test systems include A549 NSCLC; COLO 205 colon; HOP-62 NSCLC; K-562 leukemia; MDA-MB-231 breast; NCI-H226 lung; NCI-H460 lung; RPMI-8226 leukemia; UACC-257 melanoma; UO-31 renal.
Holding throughout (assay): NCI anticancer screen, dose series, 48 h

Values joined by “and” are separate entries in the source; they are usually repeats but may differ in a detail not shown here. Equal values may be shown once.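 1) Cells in 96-well plates. 2) Compound, 48 h, 5 concentrations. 3) Linear interpolation between surrounding doses. 4) Unreached endpoint = highest concentration. The concentration for 50% growth inhibition is given as GI50. TGI marks complete inhibition of growth.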 Where only a bound is given, the exact number is not on record here.

Turning to `O=c1c(Br)ccc(Br)cc1Br`, the GI50 in the assay with A549 NSCLC was 9.02 µM; in the assay with COLO 205 colon it was 0.216 µM; with HOP-62 NSCLC, 2.38 µM; in the assay on K-562 leukemia it was 0.527 µM; in the assay with MDA-MB-231 breast, 1.99 µM; with NCI-H226 lung, 2.94 µM. The GI50 in the assay on NCI-H460 lung was 4.88 µM; in the assay with RPMI-8226 leukemia it was 0.532 µM; with UACC-257 melanoma, 1.91 µM; with UO-31 renal it was 1.51 µM. The TGI in the assay on A549 NSCLC was determined as 31.8 µM; in the assay on COLO 205 colon, 0.442 µM; in the assay on HOP-62 NSCLC it was 5.58 µM; in the assay with K-562 leukemia, 3.64 µM; in the assay with MDA-MB-231 breast, 3.68 µM; in the assay on NCI-H226 lung, 9.7 µM. For the same molecule, the TGI stood at 11.5 µM in the assay on NCI-H460 lung, 2.89 µM with RPMI-8226 leukemia, 3.49 µM in the assay with UACC-257 melanoma and 2.95 µM in the assay with UO-31 renal.

For the molecule `NC1=C(O)/C(=N/NS(=O)(=O)c2ccccc2)C(c2cccc(Cl)c2)O1` (stereo not drawn), the TGI with A549 NSCLC is > 100 µM; in the assay on COLO 205 colon it was 30 µM; in the assay on HOP-62 NSCLC, > 100 µM; with K-562 leukemia, 27.9 µM; in the assay with MDA-MB-231 breast, 37.6 µM; with NCI-H226 lung, > 90.9 µM. Besides, the TGI in the assay with NCI-H460 lung was > 100 µM; with RPMI-8226 leukemia, > 47.4 µM; in the assay on UACC-257 melanoma it was > 100 µM; in the assay on UO-31 renal, 33.5 µM.

For the molecule `COc1cc(Nc2nccc(-c3cnn4ncccc34)n2)cc(OC)c1`, the GI50 with A549 NSCLC is 0.119 µM; in the assay on COLO 205 colon, 0.0553 µM; in the assay on HOP-62 NSCLC it was 0.0868 µM; in the assay on K-562 leukemia, 0.115 µM; with MDA-MB-231 breast, 0.0751 µM; in the assay on NCI-H226 lung it was 0.0577 µM. The GI50 is 0.0539 µM in the assay with NCI-H460 lung, 0.0862 µM in the assay with RPMI-8226 leukemia, 0.0844 µM with UACC-257 melanoma and 0.055 µM in the assay with UO-31 renal. Further, the TGI with A549 NSCLC is 5.67 µM; with COLO 205 colon it was 0.164 µM; in the assay on HOP-62 NSCLC, 0.651 µM; in the assay on K-562 leukemia, > 25 µM; in the assay on MDA-MB-231 breast it was > 11.9 µM; with NCI-H226 lung, 0.324 µM. Besides, the TGI turned out to be 2.93 µM in the assay on NCI-H460 lung, 0.388 µM in the assay with RPMI-8226 leukemia, 0.48 µM in the assay with UACC-257 melanoma and 0.196 µM with UO-31 renal.

With `COc1cc(Cl)c(C)cc1NC(=O)c1cc2ccccc2cc1O`, the GI50 in the assay on A549 NSCLC is 2.96 µM; in the assay with COLO 205 colon, 2.37 µM; in the assay with HOP-62 NSCLC, 2.37 µM; in the assay with K-562 leukemia it was 2.82 µM; with MDA-MB-231 breast, 1.19 µM; with NCI-H226 lung, 1.94 µM. Moreover, the GI50 was 2.74 µM in the assay with NCI-H460 lung, 1.46 µM with RPMI-8226 leukemia, 1.94 µM in the assay with UACC-257 melanoma and 1.29 µM in the assay on UO-31 renal. Besides, the TGI in the assay on A549 NSCLC was 10.6 µM; in the assay with COLO 205 colon, 8.41 µM; with HOP-62 NSCLC, 10.3 µM; with K-562 leukemia, 23 µM; with MDA-MB-231 breast it was 2.72 µM; in the assay with NCI-H226 lung, 6.28 µM. For the same molecule, the TGI with NCI-H460 lung stood at 9.63 µM; with RPMI-8226 leukemia, 6.17 µM; in the assay on UACC-257 melanoma, 5.93 µM; in the assay with UO-31 renal it was 10.6 µM.

Regarding `Cc1cnc2n(c1=O)Cc1ccccc1CO2`, the GI50 in the assay on A549 NSCLC is 28.7 µM; with COLO 205 colon, 17.1 µM; in the assay on HOP-62 NSCLC it was 20 µM; in the assay on K-562 leukemia it was 18.7 µM; in the assay with MDA-MB-231 breast, 11.8 µM; in the assay on NCI-H226 lung, 20.4 µM. Moreover, the GI50 in the assay with NCI-H460 lung was 17.7 µM; in the assay with RPMI-8226 leukemia it was 13.1 µM; in the assay with UACC-257 melanoma, 23 µM; in the assay with UO-31 renal, 18.2 µM. In addition, the TGI in the assay with A549 NSCLC is > 100 µM; in the assay on COLO 205 colon it was 37.1 µM; with HOP-62 NSCLC, 38 µM; with K-562 leukemia, 48.3 µM; with MDA-MB-231 breast it was 32 µM; with NCI-H226 lung, 52.5 µM. The TGI in the assay on NCI-H460 lung was determined as 40.2 µM; with RPMI-8226 leukemia it was 41 µM; in the assay with UACC-257 melanoma, 66 µM; in the assay with UO-31 renal it was 44.5 µM.

Regarding `O=C(/C=C/c1ccco1)c1cccc(Nc2nc(Nc3ccccc3)nc(Nc3ccccc3)n2)c1`, the GI50 with A549 NSCLC was 0.357 µM; with COLO 205 colon, 2.29 µM; with HOP-62 NSCLC, > 55.4 µM; in the assay with MDA-MB-231 breast, 5.4 µM; in the assay with NCI-H226 lung, 18.3 µM; with NCI-H460 lung it was 1.4 µM. Besides, the GI50 in the assay with RPMI-8226 leukemia is 0.279 µM; with UACC-257 melanoma, > 44.7 µM; in the assay on UO-31 renal, 3.97 µM. Further, the TGI in the assay with A549 NSCLC is > 38.2 µM; with COLO 205 colon, 14.3 µM; in the assay with HOP-62 NSCLC, > 100 µM; with K-562 leukemia, > 56.1 µM; in the assay with MDA-MB-231 breast, > 100 µM; with NCI-H226 lung it was > 82 µM. Further, the TGI was > 27.1 µM with NCI-H460 lung, 5.47 µM in the assay with RPMI-8226 leukemia, > 83.8 µM in the assay on UACC-257 melanoma and > 69.6 µM with UO-31 renal.

Turning to `Nc1nc(N)c(N=Nc2ccc([As](=O)(O)O)c(O)c2)c(N)n1`, the TGI with A549 NSCLC, in the assay on COLO 205 colon, in the assay on HOP-62 NSCLC, in the assay on K-562 leukemia, with MDA-MB-231 breast and in the assay with NCI-H226 lung was > 100 µM in each case. The TGI is > 28.1 µM in the assay with NCI-H460 lung, > 33.8 µM in the assay with RPMI-8226 leukemia, > 100 µM with UACC-257 melanoma and > 100 µM in the assay with UO-31 renal.

For the molecule `CN(CC(=O)O)Cc1c[nH]c2ccccc12`, the TGI with A549 NSCLC, in the assay on COLO 205 colon, with HOP-62 NSCLC, with K-562 leukemia, in the assay with MDA-MB-231 breast and in the assay with NCI-H226 lung was > 100 µM throughout. Besides, the TGI in the assay on NCI-H460 lung, in the assay on RPMI-8226 leukemia, in the assay on UACC-257 melanoma and in the assay on UO-31 renal was > 100 µM in each case.

On to `COc1ccc(/C=N/C2=C(C#N)C(c3ccccc3)c3ccc4ccccc4c3O2)cc1` (stereo not drawn), for which the GI50 in the assay with A549 NSCLC was 0.641 µM; in the assay with COLO 205 colon it was 0.719 µM; with HOP-62 NSCLC, 0.373 µM; in the assay with K-562 leukemia, 0.23 µM; in the assay on MDA-MB-231 breast, 0.522 µM; in the assay on NCI-H226 lung it was 2.08 µM. The GI50 is 0.363 µM in the assay with NCI-H460 lung, 0.383 µM in the assay on RPMI-8226 leukemia, > 84.5 µM in the assay with UACC-257 melanoma and 0.368 µM with UO-31 renal. The TGI was > 100 µM with A549 NSCLC; 8.49 µM in the assay with COLO 205 colon; > 100 µM in the assay with HOP-62 NSCLC; > 100 µM in the assay with K-562 leukemia; 8.39 µM in the assay with MDA-MB-231 breast; > 100 µM in the assay with NCI-H226 lung. Moreover, the TGI in the assay on NCI-H460 lung was > 100 µM; in the assay with RPMI-8226 leukemia, > 38 µM; in the assay on UACC-257 melanoma, > 100 µM; in the assay on UO-31 renal, > 100 µM.

As to `Nc1c(S(=O)(=O)O)cc2c(c1Cl)C(=O)c1ccccc1C2=O`, the GI50 with A549 NSCLC, in the assay on COLO 205 colon, in the assay with HOP-62 NSCLC, in the assay on K-562 leukemia, in the assay with MDA-MB-231 breast and in the assay with NCI-H226 lung was > 100 µM throughout. In addition, the GI50 with NCI-H460 lung, with RPMI-8226 leukemia, in the assay on UACC-257 melanoma and with UO-31 renal was > 100 µM each time. Besides, the TGI with A549 NSCLC, in the assay with COLO 205 colon, in the assay on HOP-62 NSCLC, with K-562 leukemia, in the assay with MDA-MB-231 breast and in the assay with NCI-H226 lung was > 100 µM each time. The TGI in the assay with NCI-H460 lung, in the assay on RPMI-8226 leukemia, in the assay with UACC-257 melanoma and with UO-31 renal was > 100 µM in each case.

As for `N[C@@H](Cc1ccc(N(CCCl)CCCl)cc1)C(=O)O`, the GI50 in the assay with A549 NSCLC was 23.9 µM and 16.7 µM; with COLO 205 colon, 23.6 µM and 18.4 µM; with HOP-62 NSCLC, 28.7 µM and 4.34 µM; with K-562 leukemia, 37.8 µM; in the assay with MDA-MB-231 breast, > 100 µM; in the assay with NCI-H226 lung, 44.6 µM and 26.6 µM. For the same molecule, the GI50 was 3.01 µM and 3.78 µM in the assay with NCI-H460 lung; 19.3 µM and 22.7 µM in the assay on RPMI-8226 leukemia; 37.6 µM and 20.2 µM in the assay on UACC-257 melanoma; 12.9 µM and 29.6 µM in the assay on UO-31 renal. Further, the TGI was > 100 µM and > 90.2 µM and 186 µM in the assay on A549 NSCLC; > 100 µM and 37.1 µM and 107 µM in the assay on COLO 205 colon; 190 µM with K-562 leukemia; > 100 µM and 134 µM with MDA-MB-231 breast; > 100 µM and 52.7 µM and 156 µM in the assay on NCI-H226 lung; > 100 µM and 29.2 µM and 103 µM in the assay on NCI-H460 lung. Moreover, the TGI was 75.4 µM and > 85 µM and 183 µM with RPMI-8226 leukemia; > 100 µM and 58.9 µM and 119 µM in the assay with UACC-257 melanoma; 65.2 µM and 81.2 µM and 123 µM in the assay with UO-31 renal.

Turning to `COc1ccc(-c2nn(C(=O)c3cc(OC)c(OC)c(OC)c3)c3cc(N)ccc23)cc1`, the GI50 in the assay with A549 NSCLC was < 0.0146 µM; in the assay with COLO 205 colon, 0.0217 µM; in the assay with HOP-62 NSCLC, < 0.0153 µM; in the assay with K-562 leukemia, < 0.01 µM; in the assay with MDA-MB-231 breast it was 0.0133 µM; in the assay on NCI-H226 lung, 0.15 µM. In addition, the GI50 in the assay on NCI-H460 lung was < 0.0112 µM; with RPMI-8226 leukemia, < 0.018 µM; in the assay on UACC-257 melanoma, 5.54 µM; in the assay on UO-31 renal, < 0.0196 µM. Further, the TGI in the assay with A549 NSCLC came to 3.96 µM; in the assay with COLO 205 colon, 0.0489 µM; in the assay with HOP-62 NSCLC, 6.33 µM; with K-562 leukemia it was 10.5 µM; in the assay with MDA-MB-231 breast it was 12.9 µM; in the assay on NCI-H226 lung, 6.71 µM. Moreover, the TGI came out at 1.74 µM with NCI-H460 lung, 1.84 µM in the assay with RPMI-8226 leukemia, 39.3 µM in the assay with UACC-257 melanoma and 5.05 µM in the assay on UO-31 renal.
